Data on 2 compounds can be found in PMC8095314 (ChemistryOpen, 2021).

Several values for one entry are separate records, joined by “and”; a condition that tells them apart may be missing. Equal entries are not always repeated.

The test system of data set [1] is His64. The data set can be described thus: kinetics. The following applies: cited from earlier work.
In data set [2] the target is T1, recombinant human CA XII (Homo sapiens, UniProt O43570). Type of data set: binding. The note with it: from FTSA Kd.
For data set [3], the target named is recombinant human CA II (Homo sapiens, UniProt P00918). The note with it: read-out: Kd CA II (FTSA); observed, pH 7.0, 37 °C; cited from earlier work.
Data set [4] deals with T1, recombinant human CA XII. The note with it: read-out: Kd CA XII (FTSA); observed, pH 7.0, 37 °C; cited from earlier work.
The target of data set [5] is chCA XII (Homo sapiens, UniProt P00918, A65S/F130A/I91T/L203N/N67K/V134S). In words: Fluorescent thermal shift assay.

T1 sequence (O43570 25-354): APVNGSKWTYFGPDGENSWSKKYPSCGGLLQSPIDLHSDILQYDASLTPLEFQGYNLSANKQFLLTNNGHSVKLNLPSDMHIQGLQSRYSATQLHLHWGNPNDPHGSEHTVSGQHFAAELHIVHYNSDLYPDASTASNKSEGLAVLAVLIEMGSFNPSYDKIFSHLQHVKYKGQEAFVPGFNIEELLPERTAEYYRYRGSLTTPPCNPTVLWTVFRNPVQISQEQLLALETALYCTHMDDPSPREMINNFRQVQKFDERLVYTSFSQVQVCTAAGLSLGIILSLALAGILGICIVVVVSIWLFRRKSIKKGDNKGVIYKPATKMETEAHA

With “Carbonic anhydrase XII (CA XII) (Homo sapiens)”, the pKa (in general, the negative logarithm of the acid dissociation constant) in data set [1] is 8.0±0.2 and 7.5±0.1.
As for `NS(=O)(=O)c1ccc2ccccc2c1` [Compound 37, naphthalene‐2‐sulfonamide], the “Kd ratio CA XII/CA II” value in data set [2] was 8.2. For the same compound, the Kd (in general, the equilibrium constant for the complex coming apart) in data set [3] is 0.77 µM; in data set [4], 6.3 µM; in data set [5], 6.7 µM.
